Results taken from patent US6734181B2, “Pyrrolopyridazine compounds” (Sankyo Company, Limited, priority 2000, dated 2004).

Tests used:
[1] = target: T1, proton potassium-adenosine triphosphatase (H+.K+-ATPase) (Sus scrofa, UniProt P19156); assay: Test on activity of proton potassium-adenosine triphosphatase (H+.K+-ATPase); type: biochemical; conditions: swine gastric mucosal microsomal fraction, pH 6.85, 37° C.; read-out: 50% inhibitory concentration (IC50) against proton potassium-adenosine triphosphatase (converted)
T1 construct: A microsomal fraction prepared in accordance with the method of Sachs, et al; from tissue; host or cells: swine gastric mucosa, microsomal fraction (density gradient ultracentrifugation)
T1 sequence (P19156 2-1034 limits assumed): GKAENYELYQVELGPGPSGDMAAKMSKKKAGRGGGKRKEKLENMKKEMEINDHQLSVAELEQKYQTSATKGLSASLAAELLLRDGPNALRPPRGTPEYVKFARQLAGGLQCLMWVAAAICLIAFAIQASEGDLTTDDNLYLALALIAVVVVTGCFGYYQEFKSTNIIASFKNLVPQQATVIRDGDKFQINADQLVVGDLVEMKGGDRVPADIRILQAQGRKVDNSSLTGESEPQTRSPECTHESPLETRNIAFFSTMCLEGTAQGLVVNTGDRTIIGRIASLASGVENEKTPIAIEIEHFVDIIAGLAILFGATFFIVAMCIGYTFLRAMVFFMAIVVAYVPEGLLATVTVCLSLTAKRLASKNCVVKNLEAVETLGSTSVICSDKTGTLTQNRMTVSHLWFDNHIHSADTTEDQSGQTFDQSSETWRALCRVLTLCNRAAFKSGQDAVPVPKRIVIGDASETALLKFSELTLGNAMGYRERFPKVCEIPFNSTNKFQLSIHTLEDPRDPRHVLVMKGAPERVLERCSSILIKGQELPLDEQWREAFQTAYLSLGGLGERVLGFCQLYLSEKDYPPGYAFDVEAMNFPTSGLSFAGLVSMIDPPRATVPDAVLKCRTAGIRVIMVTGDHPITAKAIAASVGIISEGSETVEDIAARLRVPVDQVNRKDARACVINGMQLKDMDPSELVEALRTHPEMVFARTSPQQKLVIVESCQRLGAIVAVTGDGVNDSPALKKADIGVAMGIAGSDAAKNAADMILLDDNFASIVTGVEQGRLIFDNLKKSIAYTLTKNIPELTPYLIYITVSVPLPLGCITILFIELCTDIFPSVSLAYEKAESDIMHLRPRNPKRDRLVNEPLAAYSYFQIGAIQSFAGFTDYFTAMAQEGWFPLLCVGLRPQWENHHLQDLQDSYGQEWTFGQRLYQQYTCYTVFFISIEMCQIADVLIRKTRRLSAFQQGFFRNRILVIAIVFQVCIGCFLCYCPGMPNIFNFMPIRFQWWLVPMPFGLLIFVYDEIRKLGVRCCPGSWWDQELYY
T1 sequence (P18434 whole entry partner): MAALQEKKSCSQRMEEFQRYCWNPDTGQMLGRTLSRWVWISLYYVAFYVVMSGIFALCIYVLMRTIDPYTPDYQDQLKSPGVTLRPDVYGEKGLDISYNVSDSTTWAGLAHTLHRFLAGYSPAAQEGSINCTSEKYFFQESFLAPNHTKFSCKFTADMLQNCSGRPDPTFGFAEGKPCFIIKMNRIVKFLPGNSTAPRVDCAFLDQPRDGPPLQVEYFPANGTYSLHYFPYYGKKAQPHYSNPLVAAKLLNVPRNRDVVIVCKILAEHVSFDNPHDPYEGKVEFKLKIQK
Procedure: Test on Activity of Proton•potassium-adenosine Triphosphatase (H^+.K^+-ATPase) A microsomal fraction prepared in accordance with the method of Sachs, et al. [J. Bio. Chem., 251, 7690(1976)] by homogenizing a fresh gastric mucosal layer of swine and then subjecting the homogenate to density gradient ultra centrifugation was employed as a proton potassium-adenosine triphosphatase preparation. A solution (10 μl) of a test compound dissolved in dimethyl sulfoxide was added to 0.75 ml of a 70 mM tris hydrochloric acid buffer (5 mM magnesium chloride, 20 mM potassium chloride, pH=6.85) containing 30 to 80 μg/ml, in terms of the protein concentration, of the enzyme preparation. The mixture was incubated with 200 times/min of agitation at 37° C. for 45 minutes. The enzymatic reaction was started by adding 0.25 ml of an 8 mM solution of disodium adenosine triphosphate. After this enzymatic reaction was continued for 20 minutes, 1 ml of a 10% trichloroacetic acid—activated charcoal (100 mg) solution was added to terminate the reaction. […] The amount of inorganic phosphoric acid in a reaction mixture free from potassium chloride was also measured. By subtracting this amount from the amount of inorganic phosphoric acid in the presence of potassium chloride, protonpotassium-adenosine triphosphatase activity (H^+.K^+-ATPase) was determined. […]

gastric acid secretion = assay: Test for inhibition on gastric acid secretion in rats (pylorus ligation); type: in vivo; conditions: pylorus-ligated rats, orally administered, four hours after ligation
Procedure: Test for Inhibition on Gastric Acid Secretion in Rats
After a group of rats was fasted overnight, they were subjected to midline abdominal incision and their pylorus was ligated under anesthesia with ether. The stomach and duodenum were returned to their original positions in the body, followed by closing at the abdominal incision part. A test compound (0.3 to 10 mg/ml) was suspended in an aqueous solution containing 0.5% of sodium carboxymethylcellulose and 0.4% of Tween 80 (trade mark). The resulting suspension (1 ml/kg of body weight) was orally administered to the rats through a stomach tube. Four hours after the ligation, the rats were sacrificed by inhalation of CO2 gas. They were subjected to abdominal incision to remove their stomach. The content of the stomach was collected in a glass-made graduated centrifuge tube. After centrifugation, the amount (ml) of the supernatant and the amount (ml) of the precipitate were measured. The precipitate of the amount exceeding 0.5 ml was regarded as feces and excluded from the data. The supernatant ([…]) was poured into a test tube. Distilled water (4 ml) was added to the solution, and the solution was titrated to pH 7.0 with 0.01 N sodium hydroxide. […] Each parameter was calculated in accordance with the following equations: […]

[2] = test system: Helicobacter pylori strains 9470, 9472 and 9474; assay: Antibacterial action against Helicobacter pylori (MIC, agar dilution); type: cell-based; conditions: 72 h, 37° C., 3 days, microaerophilic conditions, read-out: MIC (Minimum Inhibitory Concentration)
Procedure: Antibacterial Action Against Helicobacter Pylori The antibacterial activity of the compound of the invention was evaluated by using Helicobacter pylori strains 9470, 9472 and 9474 and determining MIC (Minimum Inhibitory Concentration) of the compound of the invention against Helicobacter pylori. Helicobacter pylori was cultured by plating for 4 days. A medium was prepared by dissolving Brain Heart Infusion Agar (product of Difco Laboratories) in a prescribed amount of distilled water, sterilizing in an autoclave, adding equine blood (product of Nippon Seibutsu Zairyo) to give a concentration thereof of 7% and then solidifying the mixture. Under microaerophilic conditions, Helicobacter pylori which had been cultured at 37° C. for 4 days was suspended in physiological saline to give its viable count of about 10^8 CFU/ml. The suspension was then diluted to 100 times and a portion (about 10 μl) of the diluted suspension was inoculated in a medium for measuring MIC. The medium employed for measuring MIC has the same composition as the preculture medium. A compound of this invention was dissolved in dimethyl sulfoxide (DMSO) and two-fold serial dilutions were made with sterilized water. After mixing the solution and the medium in a ratio of 1:99, a solidified product in the Petri dish was employed as an MIC measuring medium. […]

Row | melting point | IC50 [1] | MIC [2] | Structure (SMILES) | 50% inhibitory dose (ID50), gastric acid output (gastric acid secretion)
1 | 138.5 to 139.5 °C |  |  | Cc1c(C=O)c2cnnc(OCc3ccc(F)cc3)c2n1C[C@H]1C[C@@H]1C | 
2 | 128 to 129 °C | 0.0422 µM | < 12.5 mg/L | Cc1c(CO)c2cnnc(OCc3ccc(F)cc3)c2n1C[C@H]1C[C@@H]1C [Example 2, 7-(4-Fluorobenzyloxy)-3-hydroxymethyl-2-methyl-1-[(1S,2S)-2-methylcyclopropylmethyl]pyrrolo[2,3-d]-pyridazine] | less than 10 mg/kg

Row | Structure (SMILES) | melting point | IC50 [1] | MIC [2] | 50% inhibitory dose (ID50), gastric acid output (gastric acid secretion)
3 | CC(=O)OCc1c(C)n(C[C@H]2C[C@@H]2C)c2c(OCc3ccc(F)cc3)nncc12 [Example 1, 3-Acetoxymethyl-7-(4-fluorobenzyloxy)-2-methyl-1-[(1S,2S)-2-methylcyclopropylmethyl]pyrrolo[2,3-d]-pyridazine] | 122 to 123 °C |  |  | 
